Several values for one entry are separate records, joined by “and”; a condition that tells them apart may be missing. Equal entries are not always repeated. Where two headings read alike, the source gives them in different places.
How the values were obtained:
[1] = tested on: sodium channel; test: veratrine-evoked uptake of [14C]guanidine into rat forebrain synaptosomes ([14C]guanidine flux); type: biochemical
Method: The screening strategy is designed to select compounds with appropriate sodium channel blocking activity and low side effect liability. To this end all compounds are processed through the primary sodium channel assay (veratrine-evoked uptake of [^14C]guanidine into rat forebrain synaptosomes) and IC50 values computed from generated concentration-effect curves.
Synaptosomes (heavy and light mitochondrial fraction containing synaptosomes) were prepared by transferring the forebrain (of known wet weight) to a glass Potter vessel to which 9 volumes ice-cold 0.25M sucrose had been added and homogenising, using a teflon pestle, by 8 ‘up and down strokes’ of a Braun Potter S motor driven homogeniser set to 900 rpm. The resulting homogenate was centrifuged at 1036×g at 4° for 10 min and the supernatant collected. The remaining pellet was resuspended, as above, in fresh ice-cold 0.25M sucrose and the centrifugation step repeated. The supernatant fractions were pooled and centrifuged at 40,000×g (average) at 4° for 15 min and the resulting pellet resuspended in the appropriate assay buffer at a concentration of 20-25 mg wet weight per ml appropriate assay buffer.
Both assays were carried out using 14 ml polypropylene test tubes to which a range of concentrations of the compounds under test were added.
Compounds under test were pre-incubated for 10 min at 30° in incubation buffer (50 mM pH 7.4 HEPES (adjusted to pH 7.4 with Tris base), 130 mM choline chloride, 5.5 mM D-glucose, 0.8 mm MgSO4 and 5 mM KCl) containing 7.5 mg original wet weight of tissue and 100 μg veratrine HCl in a final volume of 0.5 ml. […] A further 2×5 ml of ice-cold wash buffer was added to each tube and the vacuum filtration step repeated. The GF/C glass fibre filters were transferred to minivials and 4 ml Picofluor^40 liquid scintillant added using a Brandel™ deposit/dispense system. Radioactivity was measured using a Beckman Liquid Scintillation Counter.
(§1) Data are presented as mean±sem of number of experiments indicated in brackets.

[2] = tested on: sodium channel; type: binding, rat
[3] = tested on: 0.4 mm slices of rat hippocampus; test: hippocampal slice assay: ATP after iodoacetate metabolic insult; conditions: for Emax: read-out: Max Protection (% v TTX)
[4] = molecular target: T1, DiHydroFolate Reductase (DHFR) (Rattus norvegicus, UniProt Q920D2); test: inhibition of binding of [3H]methotrexate to rat liver homogenate supernatant; conditions: for IC50: rat liver supernatant
T1 construct: from tissue; host or cells: rat liver homogenate supernatant (47,500 x g)
T1 sequence (Q920D2 1-187): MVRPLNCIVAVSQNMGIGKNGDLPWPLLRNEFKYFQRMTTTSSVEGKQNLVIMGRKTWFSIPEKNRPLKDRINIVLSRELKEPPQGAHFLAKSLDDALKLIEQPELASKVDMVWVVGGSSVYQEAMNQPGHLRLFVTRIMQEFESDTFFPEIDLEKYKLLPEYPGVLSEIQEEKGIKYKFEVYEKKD
Method: All steps were carried out at 4° (or on ice). Freshly dissected rat liver was dissected into 0.25M ice-cold Sucrose and subsequently homogenised (U-turrax) in 50 mM pH 6.0 phosphate buffer (10 ml/g tissue) containing 15 mM Dithiothreitol. The resulting homogenate was centrifuged @ 47,500×g for 20 min and supernatant (filtered through cotton wool to remove fatty lumps) stored @-80° before use (Rothenberg et al).
The binding reaction was stopped by the addition of 50 μl of a charcoal suspension (consisting of charcoal, Bovine Serum Albumin and Dextran present in a weight ratio of 100:4:1 suspended in 50 mM pH 6.0 phosphate buffer. Samples were vortexed, allowed to stand for 2 minutes and charcoal was precipitated by microcentrifugation @ full speed for 5 min. Aliquots of clear supernatant were transferred to counting vials containing liquid scintillant for measurement of radioactivity using Liquid Scintillation Spectroscopy.
Percentage inhibition values were calculated by comparison to this value.
as §1

[5] = molecular target: T2, hERG potassium channel (Homo sapiens, UniProt Q12809); test: in vitro
T2 sequence (Q12809 whole entry): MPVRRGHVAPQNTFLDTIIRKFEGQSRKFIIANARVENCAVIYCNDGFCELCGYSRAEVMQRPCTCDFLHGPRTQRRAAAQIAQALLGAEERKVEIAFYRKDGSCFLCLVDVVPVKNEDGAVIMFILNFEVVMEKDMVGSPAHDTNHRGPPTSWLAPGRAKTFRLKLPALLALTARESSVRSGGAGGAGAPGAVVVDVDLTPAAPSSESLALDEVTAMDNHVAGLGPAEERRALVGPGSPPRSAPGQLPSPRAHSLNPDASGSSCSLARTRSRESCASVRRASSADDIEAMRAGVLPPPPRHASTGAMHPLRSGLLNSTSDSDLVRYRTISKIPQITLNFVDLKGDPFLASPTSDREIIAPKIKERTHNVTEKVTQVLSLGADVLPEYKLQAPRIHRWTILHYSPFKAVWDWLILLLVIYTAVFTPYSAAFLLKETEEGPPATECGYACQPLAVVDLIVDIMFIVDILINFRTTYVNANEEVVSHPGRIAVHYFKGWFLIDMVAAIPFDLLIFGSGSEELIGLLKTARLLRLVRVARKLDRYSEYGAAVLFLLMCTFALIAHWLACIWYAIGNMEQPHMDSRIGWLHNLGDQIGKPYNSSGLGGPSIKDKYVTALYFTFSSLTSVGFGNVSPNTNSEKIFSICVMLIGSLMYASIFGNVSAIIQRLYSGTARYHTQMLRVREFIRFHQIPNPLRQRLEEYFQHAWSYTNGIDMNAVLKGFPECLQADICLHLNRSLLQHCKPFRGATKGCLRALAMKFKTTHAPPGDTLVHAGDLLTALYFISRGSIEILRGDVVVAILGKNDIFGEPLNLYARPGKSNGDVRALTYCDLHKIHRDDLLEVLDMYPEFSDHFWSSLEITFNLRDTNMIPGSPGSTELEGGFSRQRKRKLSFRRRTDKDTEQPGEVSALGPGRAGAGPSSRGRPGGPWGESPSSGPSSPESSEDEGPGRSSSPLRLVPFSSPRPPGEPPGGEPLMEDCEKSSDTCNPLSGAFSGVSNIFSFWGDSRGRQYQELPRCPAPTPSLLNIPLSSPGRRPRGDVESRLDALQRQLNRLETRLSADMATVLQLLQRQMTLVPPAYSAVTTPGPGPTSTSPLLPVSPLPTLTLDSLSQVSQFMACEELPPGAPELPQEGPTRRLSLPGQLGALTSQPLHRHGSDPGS

[6] = molecular target: T2, hERG potassium channel; test: inhibition of binding of [3H]astemizole to cell membranes expressing hERG; conditions: for selectivity ratio: human, cell membranes expressing hERG, probe [3H]astemizole
[7] = Table 1, mean ± sem (n), read-out: [14C] guanidine uptake (synaptosomes), mean IC50
[8] = Table 3, rat forebrain synaptosomes, read-out: [14C]guanidine flux Mean (IC50: μM)
[9] = Table 5, read-out: [14C]guanidine flux IC50
[10] = Table 1, synaptosomes, mean ± sem (n), read-out: [3H]BTX-B binding (synaptosomes), mean IC50
[11] = Table 4, tissue prep'n Homogenate, read-out: [3H]BTX-B binding Mean (IC50: μM)
[12] = Table 4, tissue prep'n Synaptosomes, read-out: [3H]BTX-B binding Mean (IC50: μM)
[13] = Table 5, Synaptosome data, read-out: [3H]BTX-B IC50
[14] = Rattus norvegicus, read-out: EC50 (max set @ 100)
[15] = Rattus norvegicus, read-out: hippocampal slice EC50 (μM)
[16] = read-out: [3H]methotrexate binding Inhibition (% @ assay conc'n), assay concentration 10 μM
[17] = read-out: [3H]methotrexate binding Inhibition (% @ assay conc'n), assay concentration 99 μM
[18] = hERG / [3H]BTX-B selectivity, ratio of extrapolated hERG IC50 to [3H]BTX-B IC50 (synaptosomes)
[19] = hERG / [14C]guanidine flux selectivity, ratio of extrapolated hERG IC50 to [14C]guanidine flux IC50

SMILES	IC50 [1, 8]	IC50 [1, 9]	IC50 [2, 11]	IC50 [2, 12]	IC50 [2, 13]	EC50 [3, 14]	Emax ([3]; Rattus norvegicus)	EC50 [3, 15]	inhibition at 10 µM [4, 16]	inhibition at 99 µM [4, 17]	inhibition at 10 µM [5]	selectivity ratio [5, 18]	IC50 [6]	further results
Nc1nnc(-c2cccc(Cl)c2Cl)c(N)n1 [Example 1, 5(3)-amino-6-(2,3-dichlorophenyl)-2,3(2,5)-dihydro-3(5)-imino-1,2,4-triazine, reference compound]	209 µM	209 µM	97.9 µM	76.6 µM	76.6 µM	33.1 µM	79%	30.2 µM	–	–	–	–	–	IC50 [1, 7]: 186 ± 26.5 µM; pIC50 (uptake of [14C]guanidine) ([1]; Table 8, listed as Lamotrigine): 3.75 ± 0.13 and 3.68 ± 0.27; IC50 ([1]; Table 8, listed as Lamotrigine, read-out: IC50 (μM) (uptake of [14C]guanidine)): 178 µM and 209 µM; IC50 [2, 10]: 82.6 ± 2.3 µM
Cn1nc(-c2cccc(Cl)c2Cl)c(N)nc1=N [Example 2, 5-amino-6-(2,3-dichlorophenyl)-2,3-dihydro-3-imino-2-methyl-1,2,4-triazine]	35.9 µM	35.9 µM	2.5 µM	7.2 µM	7.2 µM	37.4 µM	98 ± 5%	36.3 µM	0%	-3%	12%	10.2	73.3 µM	IC50 [1, 7]: 35.9 ± 1.8 µM; IC50 [2, 10]: 7.4 ± 0.4 µM; selectivity ratio [5, 19]: 2
CCn1nc(-c2cccc(Cl)c2Cl)c(N)nc1=N [Example 3, 5(3)-Amino-6-(2,3-dichlorophenyl)-2,3(2,5)-dihydro-3(5)-imino-2-ethyl-1,2,4-triazine]	6.4 µM	–	0.9 µM	3.7 µM	–	–	–	–	–	–	–	–	–	[3H]methotrexate binding Inhibition (% @ assay conc'n) ([4]; assay concentration 10 μM): 0%; [3H]methotrexate binding Inhibition (% @ assay conc'n) ([4]; assay concentration 99 μM): 1%; Max Protection (% v TTX) ([3]; compared with the effect of 1 μM TTX = 100% protection): 87.0 % v TTX; EC50 ([3]; read-out: EC50 (max set @ 100), data re-computed setting max @ 100%): 20 µM; EC50 ([3]; read-out: hippocampal slice EC50, protection of ATP after iodoacetate): 16 µM
CCCn1nc(-c2cccc(Cl)c2Cl)c(N)nc1=N [Example 6, 5(3)-Amino-6-(2,3-dichlorophenyl)-2,3(2,5)-dihydro-3(5)-imino-2-propyl-1,2,4-triazine]	2.8 µM	4.8 µM	0.5 µM	3.6 µM	2.2 µM	14.5 µM	81 ± 27%	10.4 µM	0%	2%	78%	1.3	2.8 µM	selectivity ratio [5, 19]: 0.6
CC(C)Cn1nc(-c2cccc(Cl)c2Cl)c(N)nc1=N [Example 7, 5(3)-Amino-6-(2,3-dichlorophenyl)-2,3(2,5)-dihydro-3(5)-imino-2-isobutyl-1,2,4-triazine methanesulfonate]	2.9 µM	–	–	1 µM	–	–	47 ± 3%	1.3 µM	-4%	-2%	–	–	–	–
CCCCn1nc(-c2cccc(Cl)c2Cl)c(N)nc1=N [Example 8, 5(3)-Amino-6-(2,3-dichlorophenyl)-2,3(2,5)-dihydro-3(5)-imino-2-butyl-1,2,4-triazine]	2.1 µM	–	–	1.7 µM	–	–	46%	10 µM	-4%	-2%	–	–	–	–
N=c1nc(N)c(-c2cccc(Cl)c2Cl)nn1Cc1ccccc1 [Example 9, 5(3)-Amino-6-(2,3-dichlorophenyl)-2,3(2,5)-dihydro-3(5)-imino-2-phenylmethyl-1,2,4-triazine hemi-methanesulfonate]	4.8 µM	–	–	2.2 µM	–	–	–	> 30 µM	2%	-4%	–	–	–	–
N=c1nc(N)c(-c2cccc(Cl)c2Cl)nn1Cc1ccoc1 [Example 30, 5(3)-Amino-6-(2,3-dichlorophenyl)-2,3(2,5)-dihydro-3(5)-imino-2-(3-furanylmethyl)-1,2,4-triazine]	4.4 µM	4.4 µM	–	2.6 µM	2.6 µM	–	–	–	–	–	65%	2.1	5.4 µM	IC50 [4]: > 250 µM; selectivity ratio [6]: 1.2
Nc1nnc(-c2cc(Cl)cc(Cl)c2Cl)c(N)n1 [Example 31, 6-(2,3,5-trichlorophenyl)-1,2,4-triazine-3,5-diamine]	16.2 µM	16.2 µM	–	21.9 µM	21.9 µM	2.2 µM	91 ± 4%	1.8 µM	–	–	13%	3.1	66.9 µM	IC50 [4]: 41 ± 4.7 µM; selectivity ratio [5, 19]: 4.1
N=c1nc(N)c(-c2cccc(Cl)c2Cl)nn1CCC(F)(F)F [Example 39, 5(3)-Amino-6-(2,3-dichlorophenyl)-2,3(2,5)-dihydro-3(5)-imino-2-(3,3,3-trifluoropropyl)-1,2,4-triazine]	3.9 µM	3.9 µM	–	1.6 µM	1.6 µM	–	–	–	–	–	40%	9.4	15 µM	IC50 [4]: > 300 µM; selectivity ratio [6]: 3.8
CN1CCN(c2ncc(-c3cc(Cl)cc(Cl)c3Cl)c(N)n2)CC1 [Sipatrigine, reference compound]	–	–	–	–	–	12.6 µM	90%	10.7 µM	0%	–	–	–	1.5 µM	inhibition at 198 µM ([4]; read-out: [3H]methotrexate binding Inhibition (% @ assay conc'n), assay concentration 198 μM): -6%; inhibition at 10 µM ([5]; hERG % inhibition @ 10 μM): 87%
